Measured values reported in patent US20090318530A1, “PHARMACEUTICAL COMPOSITIONS COMPRISING NK1 RECEPTOR ANTAGONISTS AND SODIUM CHANNEL BLOCKERS” (GLAXO GROUP LIMITED, priority 2007, published 2009).
Read-outs that look alike come from different tables or passages of the source.

Tests used:
[1] = test system: threshold for tonic hindlimb extensor seizures; assay: Maximal electroshock seizure threshold (MEST) test, 'up and down' method; format: in vivo, rat; settings: male CD rats
Procedure: This work was conducted in compliance with the Home Office Guidance on the operation of the Animals (Scientific Procedures) Act 1986 and GlaxoSmithKline ethical standards. Male CD rats (100-145 g) were supplied by Charles River, UK. Animals were group housed (6 animal per cage) with free access to food (Standard rodent chow; Harlan, UK) and water under a 12 h light/dark cycle (lights on at 0700 h). A period of at least one week between arrival at GSK and the study was allowed in all cases.
Animals were administered a test compound at the appropriate dose, route and pre-treatment time and returned to their home cage. Testing occurred in a separate room from that used for housing. […] Seizure threshold was determined using the ‘up and down’ method of Kimball et al. (1957)(Kimball A W, Burnett W T Jr, Doherty D G. (1957) Radiat Res. 7(1):1-12). […]
All doses were calculated as base. […]
Induction of seizure is measured as an all-or-nothing effect scored as either present (+) or absent (0) for each animal. […] Drug effects were calculated as the % change in CC50. Significant differences between drug-treated animals and appropriate vehicle treated groups were assessed according to the methods of Litchfield and Wilcoxon (1949). The statistical significance of differences between (5R)-5-(4-{[(2-fluorophenyl)methyl]oxy}phenyl)-L-prolinamide or in combination with ENK6 was assessed using a Student's t test.

[2] = Blood and brain drug concentrations in satellite animals; format: in vivo; settings: rat; for concentration at 60 min / concentration at 30 min: CD; for concentration at 60 min: intraperitoneal; for concentration at 30 min: subcutaneous
Procedure: […] Blood and brain samples were taken for analysis of the drug concentrations in these compartments.
All doses were calculated as base. ENa8 was dosed via the subcutaneous (s.c.) route at 1 ml/kg in a 2% v/v DMSO/saline vehicle 30 minutes prior to test. Compound ENK6 was dosed with via the intraperitoneal (i.p.) route 60 minutes before the test. ENK6 was dissolved in saline.

concentration at 60 min ([2]; brain, 30 mg/kg, ENK6 30 mg/kg, ENa8 veh, rat satellite animal n=1, read-out: Brain ENK6) [ng/g]	concentration at 60 min ([2]; brain, ENK6 30 mg/kg + ENa8 1 mg/kg, rat satellite animals n=2, read-out: Brain ENK6) [ng/g]	concentration at 60 min ([2]; brain, ENK6 30 mg/kg + ENa8 3 mg/kg, rat satellite animals n=2, read-out: Brain ENK6) [ng/g]	concentration at 60 min ([2]; whole blood, 30 mg/kg, ENK6 30 mg/kg, ENa8 veh, rat satellite animal n=1, read-out: Blood ENK6) [ng/mL]	concentration at 60 min ([2]; whole blood, ENK6 30 mg/kg + ENa8 1 mg/kg, rat satellite animals n=2, read-out: Blood ENK6) [ng/mL]	concentration at 60 min ([2]; whole blood, ENK6 30 mg/kg + ENa8 3 mg/kg, rat satellite animals n=2, read-out: Blood ENK6) [ng/mL]	concentration at 30 min ([2]; brain, 1 mg/kg, ENa8 1 mg/kg, ENK6 veh, rat satellite animals n=2, read-out: Brain ENa8) [ng/g]	concentration at 30 min ([2]; brain, 3 mg/kg, ENa8 3 mg/kg, ENK6 veh, rat satellite animals n=2, read-out: Brain ENa8) [ng/g]	concentration at 30 min ([2]; brain, ENa8 1 mg/kg + ENK6 30 mg/kg, rat satellite animals n=2, read-out: Brain ENa8) [ng/g]	concentration at 30 min ([2]; brain, ENa8 3 mg/kg + ENK6 30 mg/kg, rat satellite animals n=2, read-out: Brain ENa8) [ng/g]	concentration at 30 min ([2]; whole blood, 1 mg/kg, ENa8 1 mg/kg, ENK6 veh, rat satellite animals n=2, read-out: Blood ENa8) [ng/mL]	concentration at 30 min ([2]; whole blood, 3 mg/kg, ENa8 3 mg/kg, ENK6 veh, rat satellite animals n=2, read-out: Blood ENa8) [ng/mL]	concentration at 30 min ([2]; whole blood, ENa8 1 mg/kg + ENK6 30 mg/kg, rat satellite animals n=2, read-out: Blood ENa8) [ng/mL]	concentration at 30 min ([2]; whole blood, ENa8 3 mg/kg + ENK6 30 mg/kg, rat satellite animals n=2, read-out: Blood ENa8) [ng/mL]	blood or brain concentration of ENa8 in the presence of ENK6 ([2]; ENa8 1 or 3 mg/kg s.c. with ENK6 30 mg/kg i.p. versus ENa8 alone)	Compound	seizure threshold in the MEST ([1]; ENK6 30 mg/kg i.p. alone, 60 min before test)	seizure threshold in the MEST ([1]; ENa8 3 mg/kg s.c. alone, 30 min prior to test)
1510	1160	881	631	471	414										COc1ccc(-n2nnnc2C(F)(F)F)cc1CN[C@H]1CCCN[C@H]1c1ccccc1.Cl.Cl [ENK6, [2-Methoxy-5-(5-trifluoromethyl-tetrazol-1-yl)-benzyl]-([2S,3S]-2-phenyl-piperidin-3-yl)-amine dihydrochloride]	no effect	
						1170	2300	1340	2620	188	349	246	456	No increase	Cl.NC(=O)[C@@H]1CC[C@H](c2ccc(OCc3ccccc3F)cc2)N1 [ENa8, (5R)-5-(4-{[(2-fluorophenyl)methyl}oxy]phenyl)-L-prolinamide hydrochloride]		small, but significant increase
